We go through 26 molecules from patent publication US8138168B1 (Takeda Pharmaceutical Company Limited, priority 2007, dated 2012).

pIC50: −log10 of the molar value. Read-outs that look alike come from different tables or passages of the source. A value given as a limit tells only on which side of the number the result lay.

In this test the target is T1, Recombinant human renin (Homo sapiens, UniProt P00797).
T1 construct: isolate the active form (residues 67-406); made in house; host or cells: FreeStyle 293-F cells (transient expression of pcDNA3.1(+)/hREN)
T1 sequence (P00797 67-406): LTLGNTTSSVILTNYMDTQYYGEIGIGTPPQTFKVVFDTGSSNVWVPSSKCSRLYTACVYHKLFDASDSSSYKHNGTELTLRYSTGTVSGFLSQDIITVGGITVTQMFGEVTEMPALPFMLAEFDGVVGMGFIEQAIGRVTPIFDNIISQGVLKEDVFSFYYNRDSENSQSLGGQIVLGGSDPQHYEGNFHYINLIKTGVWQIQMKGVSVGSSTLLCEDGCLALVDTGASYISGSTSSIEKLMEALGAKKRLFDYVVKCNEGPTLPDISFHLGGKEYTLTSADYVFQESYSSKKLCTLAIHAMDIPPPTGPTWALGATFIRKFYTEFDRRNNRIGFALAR
The experiment in a line: In vitro enzymatic activity assay of renin inhibitors (fluorogenic peptide substrate). Format: biochemical. The essentials:
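Enzyme: recombinant human renin, 3 nM final, 10 min compound pre-incubation at 37 °C; buffer 50 mM Hepes pH 7.4 with 0.1 mg/mL BSA or extra 2% BSA; 5% DMSO.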

[1] abbreviates: read-out: IC50 of Exemplified Compounds Against Renin.

By pIC50 is commonly meant −log10 of the IC50, conventionally taken in molar units. With `COCCCn1c([C@@H]2CCCN(C(=O)[C@@H]3CN(S(=O)(=O)c4ccc(F)cc4Cl)C[C@H]3N)C2)nc2ccccc21` [Compound 349, ((3R,4S)-4-amino-1-(2-chloro-4-fluorophenylsulfonyl)pyrrolidin-3-yl)((R)-3-(1-(3-methoxypropyl)-1H-benzo[d]imidazol-2-yl)piperidin-1-yl)methanone], the pIC50 under setting [1] is 6.00 to 7.00. Still for that read-out and setting: for `COCCCn1c([C@@H]2CCCN(C(=O)[C@@H]3CN(C(=O)c4cccc(Cl)c4)C[C@H]3N)C2)nc2ccccc21` [Compound 375, ((3R,4S)-4-amino-1-(3-chlorobenzoyl)pyrrolidin-3-yl)((R)-3-(1-(3-methoxypropyl)-1H-benzo[d]imidazol-2-yl)piperidin-1-yl)methanone] the value was 6.00 to 7.00.

With `COCCCn1c([C@@H]2CCCN(C(=O)[C@@H]3CN(C(=O)CC4CCCCC4)C[C@H]3N)C2)nc2ccccc21` [Compound 397, l-((3S,4R)-3-amino-4-((R)-3-(1-(3-methoxypropyl)-1H-benzo[d]imidazol-2-yl)piperidine-1-carbonyl)pyrrolidin-1-yl)-2-cyclohexylethanone], under setting [1], the pIC50 was less than 6.00.

On to `COCCCn1c([C@@H]2CCCN(C(=O)C[C@H](N)Cc3ccc(-c4csc(N5CC[C@H](O)C5)n4)cc3)C2)nc2ccccc21` [Compound 435, (R)-3-amino-4-(4-(2-((S)-3-hydroxypyrrolidin-1-yl)thiazol-4-yl)phenyl)-1-((R)-3-(1-(3-methoxypropyl)-1H-benzo[d]imidazol-2-yl)piperidin-1-yl)butan-1-one], for which the pIC50 under setting [1] is greater than 7.00. For the molecule `COCCCn1c([C@@H]2CCCN(C(=O)C[C@H](N)Cc3ccc(-c4ccc5c(c4)CCO5)cc3)C2)nc2c(F)cccc21` [Compound 490, (R)-3-amino-4-(4-(2,3-dihydrobenzofuran-5-yl)phenyl)-1-((R)-3-(4-fluoro-1-(3-methoxypropyl)-1H-benzo[d]imidazol-2-yl)piperidin-1-yl)butan-1-one], under setting [1], the pIC50 is greater than 7.00. On the same count and under the same terms, in the case of `COCCCn1c([C@@H]2CCCN(C(=O)C[C@H](N)Cc3ccc4ccccc4c3)C2)nc2cccc(OC)c21` [Compound 108, (R)-3-amino-1-((R)-3-(7-methoxy-1-(3-methoxypropyl)-1H-benzo[d]imidazol-2-yl)piperidin-1-yl)-4-(naphthalen-2-yl)butan-1-one] it was 6.00 to 7.00. As for `COCCCn1c([C@]2(O)CCCN(C(=O)C[C@H](N)Cc3ccc(Cl)cc3)C2)nc2ccccc21` [Compound 247, (R)-3-amino-4-(4-chlorophenyl)-1-((S)-3-hydroxy-3-(1-(3-methoxypropyl)-1H-benzo[d]imidazol-2-yl)piperidin-1-yl)butan-1-one], the “Eutomer / distomer designation of the separated stereoisomers” value (isomers separated by preparative SFC, more or less active isomer as renin inhibitor) is listed as “Distomer”. Further, the pIC50 under setting [1] is less than 6.00. Take `COCCCn1c([C@@H]2CCCN(C(=O)C[C@H](N)CNC(=O)c3cccc(Cl)c3)C2)nc2ccccc21` [Compound 298, N-((S)-2-amino-4-((R)-3-(1-(3-methoxypropyl)-1H-benzo[d]imidazol-2-yl)piperidin-1-yl)-4-oxobutyl)-3-chlorobenzamide]: the pIC50 under setting [1] was 6.00 to 7.00. The same measure, in the same setting: in the case of `COCCCn1c([C@@H]2CCCN(C(=O)C[C@H](N)CNC(=O)c3ccc(-c4cccc(Cl)c4Cl)o3)C2)nc2ccccc21` [Compound 277, N-((S)-2-amino-4-((R)-3-(1-(3-methoxypropyl)-1H-benzo[d]imidazol-2-yl)piperidin-1-yl)-4-oxobutyl)-5-(2,3-dichlorophenyl)furan-2-carboxamide] it was 6.00 to 7.00; in that of `COCCCn1c([C@@H]2CCCN(C(=O)[C@@H]3CN(S(=O)(=O)c4ccc(C)cc4C)C[C@H]3N)C2)nc2ccccc21` [Compound 383, ((3R,4S)-4-amino-1-(2,4-dimethylphenylsulfonyl)pyrrolidin-3-yl)((R)-3-(1-(3-methoxypropyl)-1H-benzo[d]imidazol-2-yl)piperidin-1-yl)methanone], 6.00 to 7.00; in that of `NC(=O)CCn1c([C@@H]2CCCN(C(=O)C[C@H](N)Cc3ccc(-c4ccccc4)cc3)C2)nc2ccccc21` [Compound 485, 3-(2-((R)-1-((R)-3-amino-4-(biphenyl-4-yl)butanoyl)piperidin-3-yl)-1H-benzo[d]imidazol-1-yl)propanamide], less than 6.00. Same read-out and setting: for `COCCCn1c([C@@H]2CCCN(C(=O)C[C@H](N)Cc3ccc(-n4c(=O)n(C)c5ccccc54)cc3)C2)nc2ccccc21` [Compound 220, 1-(4-((R)-2-amino-4-((R)-3-(1-(3-methoxypropyl)-1H-benzo[d]imidazol-2-yl)piperidin-1-yl)-4-oxobutyl)phenyl)-3-methyl-1H-benzo[d]imidazol-2(3H)-one] the value was greater than 7.00. On the same count and under the same terms, in the case of `COCCCn1c([C@@H]2CCCN(C(=O)[C@@H]3CN(C(=O)c4cccc(C(=O)OC)c4)C[C@H]3N)C2)nc2ccccc21` [Compound 377, methyl 3-((3S,4R)-3-amino-4-((R)-3-(1-(3-methoxypropyl)-1H-benzo[d]imidazol-2-yl)piperidine-1-carbonyl)pyrrolidine-1-carbonyl)benzoate] it was 6.00 to 7.00. For the molecule `COCCCn1c([C@H]2CCCN(C(=O)C[C@H](N)Cc3ccc(Cl)cc3)C2)nc2ccccc21` [Compound 68, (R)-3-amino-4-(4-chlorophenyl)-1-((S)-3-(1-(3-methoxypropyl)-1H-benzo[d]imidazol-2-yl)piperidin-1-yl)butan-1-one], under setting [1], the pIC50 is less than 6.00. On the same count and under the same terms, in the case of `COCCCn1c([C@@H]2CCCN(C(=O)[C@@H]3CN(C(=O)c4ccccc4OC)C[C@H]3N)C2)nc2ccccc21` [Compound 387, ((3R,4S)-4-amino-1-(2-methoxybenzoyl)pyrrolidin-3-yl)((R)-3-(1-(3-methoxypropyl)-1H-benzo[d]imidazol-2-yl)piperidin-1-yl)methanone] it was less than 6.00. Still for that read-out and setting: for `COCCCn1c([C@@H]2CCCN(C(=O)[C@@H]3CN(C(=O)Nc4ccc(Cl)cc4)C[C@H]3N)C2)nc2ccccc21` [Compound 388, (3S,4R)-3-amino-N-(4-chlorophenyl)-4-((R)-3-(1-(3-methoxypropyl)-1H-benzo[d]imidazol-2-yl)piperidine-l-carbonyl)pyrrolidine-1-carboxamide] the value was less than 6.00; for `COCCCn1c([C@@H]2CCCN(C(=O)[C@@H]3CN(S(=O)(=O)c4ccc(-c5ccccc5)cc4)C[C@H]3N)C2)nc2ccccc21` [Compound 348, ((3R,4S)-4-amino-1-(biphenyl-4-ylsulfonyl)pyrrolidin-3-yl)((R)-3-(1-(3-methoxypropyl)-1H-benzo[d]imidazol-2-yl)piperidin-1-yl)methanone], 6.00 to 7.00. The same measure, in the same setting: in the case of `COCCCn1c([C@@H]2CCCN(C(=O)C[C@H](N)Cc3ccc(-c4ccc5c(c4)NC(=O)CO5)cc3)C2)nc2ccccc21` [Compound 438, 6-(4-((R)-2-amino-4-((R)-3-(1-(3-methoxypropyl)-1H-benzo[d]imidazol-2-yl)piperidin-1-yl)-4-oxobutyl)phenyl)-2H-benzo[b][1,4]oxazin-3(4H)-one] it was greater than 7.00.

With `Cc1cc(C)cc(NC(=O)N2CCCC(c3nc4ccccc4[nH]3)C2)c1` (stereo not drawn) [Compound 6, 3-(1H-benzo[d]imidazol-2-yl)-N-(3,5-dimethylphenyl)piperidine-1-carboxamide], the pIC50 under setting [1] was less than 6.00. `COCCCn1c([C@@H]2CCCN(C(=O)[C@@H]3CN(C(=O)Oc4cccc(C(F)(F)F)c4)C[C@H]3N)C2)nc2ccccc21` [Compound 408, (3S,4R)-3-(trifluoromethyl)phenyl 3-amino-4-((R)-3-(1-(3-methoxypropyl)-1H-benzo[d]imidazol-2-yl)piperidine-1-carbonyl)pyrrolidine-1-carboxylate]: the pIC50 is less than 6.00. Regarding `COCCCn1c([C@@H]2CCCN(C(=O)C[C@H](N)CNC(=O)N3CCCC3)C2)nc2ccccc21` [Compound 334, N-((S)-2-amino-4-((R)-3-(1-(3-methoxypropyl)-1H-benzo[d]imidazol-2-yl)piperidin-1-yl)-4-oxobutyl)pyrrolidine-1-carboxamide], the pIC50 under setting [1] was less than 6.00. `COCCCn1c([C@@H]2CCCN(C(=O)C[C@H](N)CNS(=O)(=O)C(C)C)C2)nc2ccccc21` [Compound 312, N-((S)-2-amino-4-((R)-3-(1-(3-methoxypropyl)-1H-benzo[d]imidazol-2-yl)piperidin-1-yl)-4-oxobutyl)propane-2-sulfonamide]: the pIC50 under setting [1] is 6.00 to 7.00.

Consider `COCCCn1c([C@@H]2CCCN(C(=O)C[C@H](N)CNC(=O)c3ccc(OC)cc3)C2)nc2ccccc21` [Compound 280, N-((S)-2-amino-4-((R)-3-(1-(3-methoxypropyl)-1H-benzo[d]imidazol-2-yl)piperidin-1-yl)-4-oxobutyl)-4-methoxybenzamide], for which the pIC50 under setting [1] is 6.00 to 7.00. On the same count and under the same terms, in the case of `COCCCn1c([C@@H]2CCCN(C(=O)[C@@H]3CN(S(=O)(=O)c4ccccc4Cl)C[C@H]3N)C2)nc2ccccc21` [Compound 346, ((3R,4S)-4-amino-1-(2-chlorophenylsulfonyl)pyrrolidin-3-yl)((R)-3-(1-(3-methoxypropyl)-1H-benzo[d]imidazol-2-yl)piperidin-1-yl)methanone] it was 6.00 to 7.00; in that of `O=C(NCc1ccccc1)N1CCCC(c2nc3ccccc3[nH]2)C1` (stereo not drawn) [Compound 3], less than 6.00. In the case of `COCCCn1c([C@@H]2CCCN(C(=O)C[C@H](N)Cc3ccc(Cl)cc3)C2)nc2ccccc21` [Compound 75, (R)-3-amino-4-(4-chlorophenyl)-1((R)-3-(1-(3-methoxypropyl)-1H-benzo[d]imidazol-2-yl)piperidin-1-yl)butan-1-one], the pIC50 under setting [1] was 6.00 to 7.00.
